# Patent publication US20090013417A1, “Transgenic Animals for Assessing Drug Metabolism and Toxicity in Man” (IMPERIAL CANCER RESEARCH TECHNOLOGY LIMITED, priority 2004, published 2009)
# Tests used:
# [1] = blood midazolam concentrations after oral midazolam in wild-type, HRN and Ad-3A4/red virus-infected HRN mice; conditions: oral 2.5 mg/kg midazolam
# [2] = test system: Chinese Hamster Ovary (CHO) cell line transfected with human cytochrome P450 2D6 (CYP2D6); experiment: metabolism of midazolam or bufuralol in CHO cells transfected with human CYP2D6, with or without Ad-3A4/red infection; conditions: CHO/2D6 cells uninfected or infected with control Ad-GFP; 10 μM, four hours
smiles,measurement,setting,value
Cc1ncc2n1-c1ccc(Cl)cc1C(c1ccccc1F)=NC2 [midazolam],peak midazolam concentration,[1]; HRN mice infected with Ad-3A4/red virus (72 h before),109 ng/mL
same,"circulating midazolam concentration, peak value",[1]; non-infected HRN mice,260 ng/mL
same,time circulating midazolam remained detectable,[1]; non-infected HRN mice,> 6 h
same,"circulating midazolam concentration, peak value",[1]; wild-type mice,128 ng/mL
same,time until circulating midazolam became undetectable again,[1]; wild-type mice,≤ 3 h
same,midazolam metabolism (1'-hydroxymidazolam formation),[2],extremely slow
